This is an account of results in publication PMC9080489, “Synthesis and biological evaluation of 2-aryl-benzimidazole derivatives of dehydroabietic acid as novel tubulin polymerization inhibitors” (RSC Advances, 2018).

For test [1], the system named is human cervical carcinoma cell line (HeLa). Briefly: MTT cytotoxic assay, HeLa. Conditions: MTT, 48 h exposure, read-out: IC50 HeLa. The format is cell-based. Here is the method: (§1) The in vitro antiproliferative activity of DAA derivatives (1–5, 6a–k, 7a–k) were evaluated by MTT assay against human hepatocarcinoma cell line (SMMC-7721), human breast cancer cell line (MDA-MB-231), human cervical carcinoma cell line (HeLa), mouse colon cancer cell line (CT-26) and human normal hepatocyte cell line (QSG-7701). Nocodazole was co-assayed as the positive control and DMEM culture medium containing 0.1% DMSO was used as negative control. The results of the tested compounds expressed as IC50 values (concentration required to inhibit tumor cell proliferation by 50%) were presented in Table 1.
(§2) The human hepatocarcinoma cell line (SMMC-7721), human breast cancer cell line (MDA-MB-231), human cervical carcinoma cell line (HeLa), mouse colon cancer cell line (CT-26) and human normal hepatocyte cells (QSG-7701) used in this study were all obtained from Keygene Biotech., China. These cell lines were maintained in DMEM medium supplemented with 10% heat-inactivated fetal bovine serum in a humidified atmosphere of 5% CO2 at 37 °C.
(§3) The in vitro cytotoxic activities of the benzimidazole derivatives of dehydroabietic acid were evaluated against tested cell lines via the MTT colorimetric method. Briefly, different tumor cells were grown in DMEM medium supplemented with 10% fetal bovine serum, penicillin (100 U mL^−1), and streptomycin (50 μg mL^−1). Cells were harvested at log phase of growth and seeded in 96-well plates (100 μL per well at a density of 2 × 10^5 cells mL^−1). After 24 h incubation at 37 °C and 5% CO2 to allow cell attachment, cultures were exposed to various concentrations of the isolated compounds for 48 h. Finally, MTT solution (2.5 mg mL^−1 in PBS) was added (40 μL per well). Plates were further incubated for 4 h at 37 °C, and the formazan crystals formed were dissolved by adding 150 μL per well of DMSO. Absorption at 570 nm was measured with an ELISA plate reader. The results were expressed as IC50 values with standard deviations, which was defined as the concentration at which 50% survival of cells was discerned. Nocodazole was co-assayed as positive control.

The test system of test [2] is human normal hepatocyte cell line (QSG-7701). Briefly: MTT cytotoxic assay, QSG-7701. The format is cell-based. Conditions: QSG7701, 48 h exposure. Here is the method: as §1, §2, §3
The subject of test [3] is SMMC-7721 cells. Briefly: Cell cycle analysis (PI staining, flow cytometry). The format is cell-based, human. The settings on record: 24 h; for percentage of cells in G2/M phase: control 8.86%; for percentage of cells in S phase: control 25.21%; for percentage of cells in G0/G1 phase: control 65.93%. Here is the method:
Flow cytometry was used to analyze the effects of the DAA derivative on cell growth and division. SMMC-7721 cells were treated with different concentrations of compound 6j (0, 0.1, 0.2 and 0.5 μM) for 24 h. Cell cycle distribution was investigated by flow cytometric analysis after staining the DNA of the treated cells with propidium iodide (PI).
For the flow cytometric analysis of the DNA content, SMMC-7721 cells were seeded in 6-well plates (5 × 10^5 cells per well) and incubated in the absence or presence of compound 6j at indicated concentrations for 24 h. After treatment, cells were detached with 0.25% trypsin, harvested by centrifugation, washed twice with ice-cold PBS and then fixed and permeabilized with ice-cold ethanol at 4 °C overnight. Ethanol was removed by centrifugation, and the cells were washed twice and resuspended in ice-cold PBS. After this, the cells were treated with 100 μL of 100 μg mL^−1 RNAse A at 37 °C for 30 min, followed by incubation with 400 μL of 1 mg mL^−1 DNA staining solution propidium iodide (PI) in the dark at 4 °C for 30 min. The samples were then analyzed for their DNA content by flow cytometry (Becton-Dickinson FACSCalibur, New York, USA).

In test [4] the test system is SMMC-7721 cells. Briefly: Wound healing assay (cell migration). It counts as cell-based, human. Conditions: 0.2 and 0.5 μM, up to 48 h. From the text:
Metastasis is a multistep process involving cancer cell motility and invasion which represents a key difficulty for cancer therapy. Thus, the inhibition of metastasis is vital for efficient cancer treatment. Microtubule plays an important role in cell motility and migration. As compound 6j inhibits tubulin polymerization, the capacity of migration inhibition was also investigated through wound healing assay.[45] In this assay, standard scratches (wounds) were made in confluent monolayers of SMMC-7721 cells and incubated with different concentrations (0, 0.1, 0.2 and 0.5 μM) of compound 6j. The migration of SMMC-7721 cells was recorded by microscopic observations at 0, 24 and 48 h.
SMMC-7721 cells (5 × 10^5 cells per well) were grown in a 12-well plate for 24 h. Scratches were made in confluent monolayers using 200 μL pipette tip. Then, wounds were washed twice with PBS to remove non-adherent cell debris. The media containing different concentrations (0, 0.1, 0.2 and 0.5 μM) of compound 6j were added to the corresponding wells. Cells which migrated across the wound area were photographed under the phase contrast microscope (Olympus 1X71 Inverted System Microscope, Olympus, Japan) after 24 and 48 h treatment.

Test [5] relates to SMMC-7721 cells. Briefly: ROS generation assay (DCFH-DA). The format is cell-based, human. The settings on record: 0.2, 0.5, 1 and 2 μM, 24 h. The protocol:
Reactive oxygen species (ROS) are highly harmful elements to cells as they exert oxidative stress and finally cause cellular damage. Excessive ROS generation renders cells vulnerable to apoptosis.[39] To determine whether compound 6j triggers ROS generation in SMMC-7721 cells to induce apoptosis, the cells were treated with different concentrations (0, 0.2, 0.5, 1 and 2 μM) of compound 6j for 24 h, and the ROS generation was evaluated using the fluorescent probe 2,7-dichlorofluorescein diacetate (DCF-DA) by fluorescence microscopy. […] This phenomenon implied that the increment of ROS might play an important role as an early mediator in compound 6j-induced apoptosis.
ROS generation assay was performed by using the reactive oxygen species assay kit (Beyotime Biotech., China). Intracellular ROS generation was tested through dichlorodihydro fluorescein diacetate (DCFH-DA) assay. DCFH-DA is taken up by SMMC-7721 cells, and then activated by esterase-mediated cleavage of acetate to form dichlorodihydro fluorescein (DCFH), which is trapped in the cells. DCFH is converted to fluorescein DCF in the presence of ROS. SMMC-7721 cells were seeded in six-well plates and incubated with different concentrations of compound 6j for 24 h. […] Immediately after light exposure, cell images were acquired through an inverted fluorescence microscope (Olympus 1X71 Inverted System Microscope, Olympus, Japan).

For the molecule `COC(=O)[C@]1(C)CCC[C@]2(C)c3cc(Br)c4nc(-c5ccc6[nH]ccc6c5)[nH]c4c3CCC12` (stereo partly shown) [Compound 6j, Methyl 2′-(1H-indol-5-yl)-12-bromo-13,14-imidazolyl-deisopropyl-dehydroabietate], the values for the half-inhibitory concentration (IC50) in test [1] and in test [2] were 0.23 ± 0.05 µM and 5.82 ± 0.38 µM, respectively. Also, the entries for the “percentage of cells in G2/M phase” value in the test with SMMC-7721 cells [3] (0.1 μM), in the test on SMMC-7721 cells [3] (0.2 μM) and with SMMC-7721 cells [3] (0.5 μM) were 13.65%, 18.37% and 26.42%, respectively. For the same molecule, the “percentage of cells in S phase” value in the test on SMMC-7721 cells [3] (0.1 μM) amounted to 29.52%; in the test with SMMC-7721 cells [3] (0.2 μM), 29.34%; with SMMC-7721 cells [3] (0.5 μM), 24.27%. The “percentage of cells in G0/G1 phase” value in the test with SMMC-7721 cells [3] (0.1 μM) came to 56.83%; in the test with SMMC-7721 cells [3] (0.2 μM) it was 52.28%; with SMMC-7721 cells [3] (0.5 μM), 49.30%. Further, the “wound healing (cell migration)” value with SMMC-7721 cells [4] was “healing was strongly suppressed”. In addition, the “ROS generation (DCF green fluorescence)” value in the test with SMMC-7721 cells [5] is reported as “significantly induced ROS generation”.
